In experiment [1] the target is T1, IRAK4 (Homo sapiens, UniProt Q9NWZ3).
T1 construct: endogenous in cells; host or cells: Karpas299
T1 sequence (Q9NWZ3 1-460): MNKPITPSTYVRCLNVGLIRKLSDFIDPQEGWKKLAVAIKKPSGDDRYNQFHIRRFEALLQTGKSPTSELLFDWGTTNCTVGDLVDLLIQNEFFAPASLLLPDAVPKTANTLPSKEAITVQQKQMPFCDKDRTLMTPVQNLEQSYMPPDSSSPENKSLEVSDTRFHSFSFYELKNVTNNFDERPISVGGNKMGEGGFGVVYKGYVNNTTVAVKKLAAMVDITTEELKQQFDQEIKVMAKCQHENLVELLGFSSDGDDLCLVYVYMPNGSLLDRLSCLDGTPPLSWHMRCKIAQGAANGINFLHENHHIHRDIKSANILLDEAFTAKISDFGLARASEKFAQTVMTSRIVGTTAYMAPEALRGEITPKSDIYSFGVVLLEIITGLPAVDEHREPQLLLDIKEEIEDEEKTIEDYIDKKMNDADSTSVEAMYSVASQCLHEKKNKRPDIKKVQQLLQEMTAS
Nature of the experiment: IRAK4 Degradation Assay (Karpas299, HTRF/TR-FRET). In kind it is cell-based. The note with it: Karpas-299 cells. The essentials:
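Compound potency as DC50 (IC50) came from four-parameter fits of percent IRAK4 degradation. IRAK4 was measured by HTRF (665/620 nm) in lysates of Karpas299 cells seeded at 0.2 million per well. Cells had been treated with compound dilutions for 5 or 24 h.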
Background: In TR-FRET formats the signal depends on donor and acceptor labels being close together.

Experiment [2] concerns the target T1, IRAK4. Nature of the experiment: IRAK4 Degradation Assay with Human Serum (Karpas299, HTRF/TR-FRET). In kind it is cell-based. The note with it: Karpas-299 in human serum, 24 hrs treatment; for DC50: read-out: IRAK4 degradtion with human serum assay DC50; for Dmax: read-out: IRAK4 degradtion with human serum assay Dmax (%). The essentials:
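Remaining IRAK4 measured by TR-FRET immunoassay on lysates of Karpas299 cells exposed 24 h to compound dilution series in human serum AB. DC50 derived from a Hill-slope fit of % degradation versus concentration.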

Setting [3] is: 24 h treatment, read-out: IRAK4 in Karpas-299 (24 h) DC50.
Where [4] appears, read: 24 h treatment, maximum percentage of degradation, read-out: IRAK4 in Karpas-299 (24 h) Dmax (%).

A word on the DC50: it is the concentration at which degradation of the target reaches its halfway point. In general, Dmax refers to the greatest extent of degradation seen.

Take `CC(C)(O)c1cc2nn([C@H]3C[C@H](N4CCN(C(=O)[C@@H]5CCN(c6cc(F)c([C@H]7CCC(=O)NC7=O)c(F)c6)C5)CC4)C3)cc2cc1NC(=O)c1ccc2cc(C#N)cnn12` [Example 329, 3-cyano-N-(2-((1R,3r)-3-(4-((R)-1-(4-((R)-2,6-dioxopiperidin-3-yl)-3,5-difluorophenyl)pyrrolidine-3-carbonyl)piperazin-1-yl)cyclobutyl)-6-(2-hydroxypropan-2-yl)-2H-indazol-5-yl)pyrrolo[1,2-b]pyridazine-7-carboxamide]: the “IRAK4 in Karpas-299 (24 h) Dmax (%)” value at IRAK4 [1] (24 h treatment, maximum percentage of degradation) is recorded as 96%. Also, the half-maximal degradation concentration (DC50) at IRAK4 [1] (setting [3]) was found to be 0.8 nM; at IRAK4 [2], 19 nM. Moreover, the “IRAK4 degradtion with human serum assay Dmax (%)” value at IRAK4 [2] is reported as 98%.
On to `CC(C)(O)c1cc2nn([C@H]3CC[C@H](N4CCN(CCc5cc(F)c([C@H]6CCC(=O)NC6=O)c(F)c5)CC4=O)CC3)cc2cc1NC(=O)c1ccc2cc(C#N)cnn12` [Example 334, 3-cyano-N-(2-((1R,4r)-4-(4-(4-((R)-2,6-dioxopiperidin-3-yl)-3,5-difluorophenethyl)-2-oxopiperazin-1-yl)cyclohexyl)-6-(2-hydroxypropan-2-yl)-2H-indazol-5-yl)pyrrolo[1,2-b]pyridazine-7-carboxamide], for which the values for the Dmax at IRAK4 [1] (setting [4]) and on IRAK4 [2] were 95% and 94%, respectively. Moreover, the half-maximal degradation concentration (DC50) was found to be 0.6 nM on IRAK4 [1] (setting [3]) and 6.3 nM on IRAK4 [2].
`CC(C)(O)c1cc2nn([C@H]3CC[C@H](N4CCN(C5CN(c6cc(F)c([C@H]7CCC(=O)NC7=O)c(F)c6)C5)CC4=O)CC3)cc2cc1NC(=O)c1ccc2cc(C#N)cnn12` [Example 335, 3-cyano-N-(2-((1R,4r)-4-(4-(1-(4-((R)-2,6-dioxopiperidin-3-yl)-3,5-difluorophenyl)azetidin-3-yl)-2-oxopiperazin-1-yl)cyclohexyl)-6-(2-hydroxypropan-2-yl)-2H-indazol-5-yl)pyrrolo[1,2-b]pyridazine-7-carboxamide]: the Dmax at IRAK4 [1] (setting [4]) was determined as 93%; on IRAK4 [2], 99%. For the same compound, the DC50 at IRAK4 [1] (setting [3]) is 0.6 nM; at IRAK4 [2], 64 nM.
`COc1cc2nn([C@H]3CC[C@H](N4CCN(C(=O)C5CN(c6cc(F)c([C@H]7CCC(=O)NC7=O)c(F)c6)C5)CC4)CC3)cc2cc1NC(=O)c1ccc2cc(C#N)cnn12` [Example 336, 3-cyano-N-(2-((1r,4r)-4-(4-(1-(4-((R)-2,6-dioxopiperidin-3-yl)-3,5-difluorophenyl)azetidine-3-carbonyl)piperazin-1-yl)cyclohexyl)-6-methoxy-2H-indazol-5-yl)pyrrolo[1,2-b]pyridazine-7-carboxamide]: the results for the Dmax on IRAK4 [1] (setting [4]) and on IRAK4 [2] were 100% and 92%, respectively. Besides, the values for the DC50 at IRAK4 [1] (setting [3]) and on IRAK4 [2] were 0.2 nM and 13 nM, respectively.
The corresponding values for `COc1cc2nn([C@H]3CC[C@H](N4CCN(CCc5cc(F)c([C@H]6CCC(=O)NC6=O)c(F)c5)CC4)CC3)cc2cc1NC(=O)c1ccc2cc(C#N)cnn12` [Example 337, 3-cyano-N-(2-((1R,4r)-4-(4-(4-((R)-2,6-dioxopiperidin-3-yl)-3,5-difluorophenethyl)piperazin-1-yl)cyclohexyl)-6-methoxy-2H-indazol-5-yl)pyrrolo[1,2-b]pyridazine-7-carboxamide] are 96%, 89%, 2.1 nM and 10 nM.
On to `COc1cc2nn([C@H]3CC[C@H](N4CCN(C5CCN(c6cc(F)c([C@H]7CCC(=O)NC7=O)c(F)c6)CC5)CC4)CC3)cc2cc1NC(=O)c1ccc2cc(C#N)cnn12` [Example 338, 3-cyano-N-(2-((1r,4r)-4-(4-(1-(4-((R)-2,6-dioxopiperidin-3-yl)-3,5-difluorophenyl)piperidin-4-yl)piperazin-1-yl)cyclohexyl)-6-methoxy-2H-indazol-5-yl)pyrrolo[1,2-b]pyridazine-7-carboxamide], for which the Dmax was 95% at IRAK4 [1] (setting [4]) and 92% at IRAK4 [2]. The 50% degradation concentration (DC50) came to 1.1 nM on IRAK4 [1] (setting [3]) and 13 nM at IRAK4 [2].
Turning to `CC(C)(O)c1cc2nn(C3CCN([C@@H]4CCN(CCc5cc(F)c([C@H]6CCC(=O)NC6=O)c(F)c5)CC4(F)F)CC3)cc2cc1NC(=O)c1ccc2cc(C#N)cnn12` [Example 340, 3-cyano-N-(2-((R)-1′-(4-((R)-2,6-dioxopiperidin-3-yl)-3,5-difluorophenethyl)-3′,3′-difluoro-[1,4′-bipiperidin]-4-yl)-6-(2-hydroxypropan-2-yl)-2H-indazol-5-yl)pyrrolo[1,2-b]pyridazine-7-carboxamide], the Dmax on IRAK4 [1] (setting [4]) is 98%; at IRAK4 [2], 97%. The values for the 50% degradation concentration (DC50) on IRAK4 [1] (setting [3]) and on IRAK4 [2] were 3.4 nM and 16 nM, respectively.
`CC(C)(O)c1cc2nn(C3CCN([C@@H]4CCN(C5CCN(c6cc(F)c([C@H]7CCC(=O)NC7=O)c(F)c6)CC5)CC4(F)F)CC3)cc2cc1NC(=O)c1ccc2cc(C#N)cnn12` [Example 341, 3-cyano-N-(2-((R)-1″-(4-((R)-2,6-dioxopiperidin-3-yl)-3,5-difluorophenyl)-3′,3′-difluoro-[1,4′:1′,4″-terpiperidin]-4-yl)-6-(2-hydroxypropan-2-yl)-2H-indazol-5-yl)pyrrolo[1,2-b]pyridazine-7-carboxamide]: the Dmax at IRAK4 [1] (setting [4]) was determined as 97%; at IRAK4 [2] it was 96%. For the same compound, the 50% degradation concentration (DC50) stood at 1.5 nM at IRAK4 [1] (setting [3]) and 15 nM on IRAK4 [2].
`CC(C)(O)c1cc2nn(C3CCN([C@@H]4CCN(C5CN(c6cc(F)c([C@H]7CCC(=O)NC7=O)c(F)c6)C5)CC4(F)F)CC3)cc2cc1NC(=O)c1ccc2cc(C#N)cnn12` [Example 342, 3-cyano-N-(2-((R)-1′-(1-(4-((R)-2,6-dioxopiperidin-3-yl)-3,5-difluorophenyl)azetidin-3-yl)-3′,3′-difluoro-[1,4′-bipiperidin]-4-yl)-6-(2-hydroxypropan-2-yl)-2H-indazol-5-yl)pyrrolo[1,2-b]pyridazine-7-carboxamide]: the Dmax was found to be 102% on IRAK4 [1] (setting [4]) and 98% at IRAK4 [2]. Besides, the figures for the DC50 on IRAK4 [1] (setting [3]) and at IRAK4 [2] were 1.5 nM and 14 nM, respectively.
Consider `COc1cc2nn([C@H]3CC[C@H](N4CCN(C(=O)C5CN(c6cc(F)c([C@H]7CCC(=O)NC7=O)c(F)c6)C5)CC4)CC3)cc2cc1C(=O)Nc1cnc2cccnn12` [Example 343, 2-((1r,4r)-4-(4-(1-(4-((R)-2,6-dioxopiperidin-3-yl)-3,5-difluorophenyl)azetidine-3-carbonyl)piperazin-1-yl)cyclohexyl)-N-(imidazo[1,2-b]pyridazin-3-yl)-6-methoxy-2H-indazole-5-carboxamide], for which the Dmax stood at 97% at IRAK4 [1] (setting [4]) and 102% on IRAK4 [2]. For the same compound, the DC50 on IRAK4 [1] (setting [3]) amounted to 0.1 nM; at IRAK4 [2], 2.3 nM.
For the compound `COc1cc2nn([C@H]3CC[C@H](N4CCN(C(=O)C5CN(c6cc(F)c([C@H]7CCC(=O)NC7=O)c(F)c6)C5)CC4)CC3)cc2cc1C(=O)Nc1cnn2cccnc12` [Example 344, 2-((1r,4r)-4-(4-(1-(4-((R)-2,6-dioxopiperidin-3-yl)-3,5-difluorophenyl)azetidine-3-carbonyl)piperazin-1-yl)cyclohexyl)-6-methoxy-N-(pyrazolo[1,5-a]pyrimidin-3-yl)-2H-indazole-5-carboxamide], the Dmax on IRAK4 [1] (setting [4]) came to 98%; at IRAK4 [2], 100%. Moreover, the DC50 on IRAK4 [1] (setting [3]) amounted to 0.24 nM; at IRAK4 [2] it was 2.7 nM.
In the case of `CC(C)(O)c1cc2nn(C3CCN(C4CCN(C(=O)C5CN(c6cc(F)c([C@H]7CCC(=O)NC7=O)c(F)c6)C5)CC4)CC3)cc2cc1NC(=O)c1ccc2cc(C#N)cnn12` [Example 346, (R)-3-cyano-N-(2-(1′-(1-(4-(2,6-dioxopiperidin-3-yl)-3,5-difluorophenyl)azetidine-3-carbonyl)-[1,4′-bipiperidin]-4-yl)-6-(2-hydroxypropan-2-yl)-2H-indazol-5-yl)pyrrolo[1,2-b]pyridazine-7-carboxamide], the Dmax at IRAK4 [1] (5 h treatment, maximum percentage of degradation, read-out: IRAK4 in Karpas-299 (5 h) Dmax (%)) worked out at 93%; at IRAK4 [1] (setting [4]), 97%; at IRAK4 [2], 99%. Also, the DC50 at IRAK4 [1] (5 h treatment, read-out: IRAK4 in Karpas-299 (5 h) DC50) turned out to be 1.6 nM; at IRAK4 [1] (setting [3]), 1.4 nM; on IRAK4 [2], 5.5 nM.

The values are drawn from patent publication US20250195513A1, “DEGRADATION OF IRAK4 BY CONJUGATION OF IRAK4 INHIBITORS WITH E3 LIGASE LIGAND AND METHODS OF USE” (BeiGene, Ltd., priority 2022, published 2025).
